# Structures can show the parent of a compound that is named as a salt. Where two headings read alike, the source gives them in different places.
# Tests used:
# human DAT = molecular target: T1, human DAT (Homo sapiens, UniProt Q01959); test: [3H]-WIN 35,428 competition binding, CHO membranes transfected with human DAT
# T1 construct: purchased Perkin Elmer; host or cells: CHO cells transfected with human DAT (membrane preparation)
# Description: At the end of the incubation time, bound and free radioactivity were separated by filtering the assay mixture through Whatman GF/B glass fiber filters in a Brandel cell harvester (Brandel, Unterföhring, Germany).
# mouse DAT = molecular target: T2, mouse DAT (Mus musculus, UniProt Q61327); test: [3H]-WIN 35,428 competition binding, mouse striatal synaptosomes
# T2 construct: DAT expressed in mouse striatal nerve terminals; from tissue; host or cells: mouse striatum, crude synaptosomal (P2) fraction
# T2 sequence (Q61327 whole entry): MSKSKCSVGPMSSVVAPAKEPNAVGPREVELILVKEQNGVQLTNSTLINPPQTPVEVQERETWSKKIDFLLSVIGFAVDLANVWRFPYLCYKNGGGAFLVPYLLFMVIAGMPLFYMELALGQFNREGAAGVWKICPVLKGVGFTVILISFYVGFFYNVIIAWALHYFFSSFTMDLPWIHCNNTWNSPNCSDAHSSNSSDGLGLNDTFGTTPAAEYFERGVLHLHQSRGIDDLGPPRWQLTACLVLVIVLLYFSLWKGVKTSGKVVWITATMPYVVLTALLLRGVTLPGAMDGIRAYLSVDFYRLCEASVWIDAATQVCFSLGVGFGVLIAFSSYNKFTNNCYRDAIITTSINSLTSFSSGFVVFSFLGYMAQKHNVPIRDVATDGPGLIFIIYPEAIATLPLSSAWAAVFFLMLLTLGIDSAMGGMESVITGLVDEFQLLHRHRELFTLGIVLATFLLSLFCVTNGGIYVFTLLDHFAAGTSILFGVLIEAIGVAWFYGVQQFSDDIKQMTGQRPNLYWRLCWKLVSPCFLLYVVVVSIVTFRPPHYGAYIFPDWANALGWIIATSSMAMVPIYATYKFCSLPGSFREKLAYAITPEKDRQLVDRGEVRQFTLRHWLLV
# Description: Competition binding experiments were carried out incubating 8 nM [^3H]-WIN 35,428 (specific activity 84 Ci/mmol; Perkin Elmer, Boston, MA, USA) with CHO membranes transfected with human DAT (Perkin Elmer) or mouse striatal synaptosomes with different concentration of the examined compounds for 120 min at 4°C. Non-specific binding was determined in the presence of 1 µM GBR 12783. At the end of the incubation time, bound and free radioactivity were separated by filtering the assay mixture through Whatman GF/B glass fiber filters in a Brandel cell harvester (Brandel, Unterföhring, Germany). Filter bound radioactivity was counted in a Perkin Elmer 2810TR scintillation counter (Perkin Elmer).
# (§1) On the day of the experiment, the animal was euthanized, the brain was rapidly removed, and both striata isolated. Thereafter, a crude synaptosomal (P2) fraction was prepared as follows: the striata were suspended in ice-cold buffered sucrose solution (0.32 M, pH 7.4) and homogenized. The homogenate was centrifuged (10 min, 2,100 g, 4°C) to remove nuclei and debris. The supernatant was further centrifuged at 13,500 g for 20 min at 4°C. For [^3H]-WIN 35,428 binding experiments, the P2 pellet was resuspended in 50 mM Tris–HCl, 100 mM NaCl, pH 7.4. For [^3H]-DA release experiments, the P2 pellet was then resuspended in 5 ml of Kreb’s solution (mM: NaCl 118; KCl 4.4; CaCl2 1.2; MgSO4 1.2; KH2PO4 1.2; NaHCO3 25; glucose 10), gassed 20 min with a mixture of 95% O2 plus 5% CO2 containing [^3H]-DA (50 nM; Perkin Elmer, Monza, Italy), disodium EDTA (0.03 mM), and ascorbic acid (0.05 mM; to prevent [^3H]-DA degradation).
# male CD-1 mice = test: Spontaneous locomotor activity (ANY-maze video tracking); assay type: in vivo, mouse; conditions: for facilitation of spontaneous locomotion after pretreatment with AM 251 / facilitation of spontaneous locomotion after coadministration of SCH23390 and haloperidol: JWH-018 0.3 mg/kg; for facilitation of spontaneous locomotion after pretreatment with AM 251 / facilitation of spontaneous locomotion after coadministration of SCH23390 and haloperidol / time in the central zone versus peripheral area of the cage / total distance traveled (spontaneous locomotion) / duration of the increase of spontaneous locomotion: AKB48 1 mg/kg; for facilitation of spontaneous locomotion after pretreatment with AM 251: AM 251 1 mg/kg i.p. 20 min before; for facilitation of spontaneous locomotion after coadministration of SCH23390 and haloperidol: SCH23390 0.1 mg/kg i.p. + haloperidol 0.05 mg/kg i.p. 20 min before; for time in the central zone versus peripheral area of the cage / immobility time / total distance traveled (spontaneous locomotion) / duration of the increase of spontaneous locomotion: acute i.p.: JWH-018 0.3 mg/kg; for immobility time: AKB48 1 mg/kg (30 min after administration); for immobility time / total distance traveled (spontaneous locomotion): amphetamine 10 mg/kg; for immobility time / total distance traveled (spontaneous locomotion) / duration of the increase of spontaneous locomotion / time spent in the peripheral arena: cocaine 20 mg/kg; for total distance traveled (spontaneous locomotion): monitored 240 min; for spontaneous locomotion, antagonist by itself: AM 251 1 mg/kg i.p., SCH23390 0.1 mg/kg i.p., haloperidol 0.05 mg/kg i.p.; for time spent in the peripheral arena: acute i.p.: amphetamine 10 mg/kg
# Description: Drugs were administered by intraperitoneal injection in a volume of 4 μl/g. The used doses of JWH-018 (0.3 and 1 mg/kg i.p.) and AKB48 (0.3 and 1 mg/kg i.p.) were chosen based on previous studies ([6], [7], [9], [10]).
# The spontaneous locomotor activity was measured by using the ANY-maze video tracking system (Ugo Basile, application version 4.99 g Beta). The mouse was placed in a square plastic cage (60 cm × 60 cm) located in a sound- and light-attenuated room and motor activity was monitored for 240 min. Four mice were monitored in parallel in each experiment. Parameters measured were distance traveled (meter), total time in the peripheral zone (seconds), total time in the central zone (seconds), and immobility time (seconds; the animal was considered immobile when 95% of his image remained in the same place for at least 2 s). Parameters were analyzed every 15 min for a maximum of 240 min and to avoid mice olfactory cues, cages were carefully cleaned with a dilute (5%) ethanol solution and washed with water between animal trials. All experiments were performed between 9:00 a.m. and 1:00 p.m.
# [1] = molecular target: T3, dopamine transporter (DAT) in the mouse striatum (Mus musculus, UniProt Q61327); test: In vivo DaTSCAN SPECT-CT imaging, striatal [123I]-FP-CIT binding; conditions: i.p. 30 min before tracer: cocaine 20 mg/kg, amphetamine 10 mg/kg, JWH-018 1 mg/kg, AKB48 1 mg/kg
# T3 construct: from tissue; host or cells: striatum of living CD-1 male mice (in vivo imaging)
# T3 sequence (Q61327 whole entry): as above
# Description: 18 CD-1 male mice were divided into six different groups (three mice per treatment). […] A control group (i.e., naïve untreated mice) was also included in the study. Thirty minutes after drug administration, all mice were submitted to an intravenous injection with a solution of [^123I]-DaTSCAN (15–20 MBq, ≤200 µl). The body temperature of the animals was maintained at 37°C during the imaging sessions and under the cage, between imaging sessions, using a heating lamp. The SPECT–CT whole-body images were acquired at 1 h and 30 min after [^123I]-FP-CIT injection, with the initial tomographic acquisition starting nearly 15 min after the injection. Each SPECT-CT whole-body acquisition consisted of one bed positions (36 mm), 60 min, 128 views over 360 ([35]). The used energy window is 119–219 keV and the images were reconstructed by using the iterative EM-ML algorithm, including the collimator response. CT images have been acquired, using the digital X-ray imaging system integrated into the YAP(S)PET scanner ([36]). Acquisition parameters for X-ray projections were X-ray tube voltage = 35 keV, anode current = 1 mA, exposure = 1 s, 64 views over 360, and magnification factor = 1.2. Subtraction of dark noise contribution and flat field corrections was accomplished to obtain final images. The CT data were reconstructed by using the FDK algorithm. Amide software ([37]) has been used for images’ registration, visualization and analysis. The size of the ROIs was voxels (100 mm^3 volume), corresponding to entire striatum. These ROIs were used as a template. To avoid the variability of the slice selection and to gain statistical power, the entire striatum volume for the analysis was used. The template was positioned manually (without changing the size and form of the ROIs) on the SPECT images with the backing of anatomical information from LONI MAP 2003 MRI mouse atlas ([38], [39]). For analysis of striatal [^123I]-FP-CIT binding, two consecutive horizontal slices (total thickness approximately 4 mm) with the highest striatal binding were selected. The landmarks for positioning were the intra-orbital glands, striatum, and the borders of the brain. Striatal binding ratios are expressed as average activity per unit volume [Bq/mm^3], each value has been calculated as the ratio between the activity inside the ROI and the ROI volume, normalized for injected activity and for mouse brain weight.
# [2] = system: DA release in the nucleus accumbens (NAc) shell; test: In vivo brain microdialysis, NAc shell extracellular DA; design: species or system mouse; conditions: for increase of NAc shell extracellular DA levels (maximal/peak): JWH-018 0.3 mg/kg i.p. (long-lasting), AKB48 0.3 mg/kg i.p. (peak); for NAc shell extracellular DA levels: awake freely moving mice, i.p.: amphetamine 10 mg/kg, cocaine 20 mg/kg, JWH-018 0.3 mg/kg, AKB48 0.3 mg/kg
# Description: Male ICR (CD-1®) mice, 25–30 g (ENVIGO. Harlan Italy; S. Pietro al Natisone, Italy) were anesthetized with Isoflurane (3%; 200 ml/min) and implanted with vertical dialysis probe (1 mm dialyzing portion) prepared with AN69 fibers (Hospal Dasco, Bologna, Italy) in the NAc shell (A + 1.4, L 0.4 from bregma, V-4.8 from dura) according to the mouse brain atlas by Paxinos and Franklin ([40]). On the day following surgery, probes were perfused with Ringer’s solution (147 mM NaCl, 4 mM KCl, 2.2 mM CaCl2) at a constant rate of 1 µl/min. Dialyzate samples (10 µl) were injected into an HPLC equipped with a reverse phase column (C8 3.5 um, Waters, USA) and a coulometric detector (ESA, Coulochem II) to quantify DA. The first electrode of the detector was set at +130 mV (oxidation) and the second at −175 mV (reduction). The composition of the mobile phase was as follows: 50 mM NaH2PO4, 0.1 mM Na2-EDTA, 0.5 mM n-octyl sodium sulfate, 15% (v/v) methanol, pH 5.5. […] At the end of each experiment, animals were sacrificed and their brains removed and stored in formalin (8%) for histological examination to verify the correct placement of the microdialysis probe.
# [3] = system: spontaneous [3H]-DA efflux from mouse striatal synaptosomes; test: Spontaneous [3H]-DA release from striatal synaptosomes; assay type: biochemical; conditions: amphetamine 10 µM, cocaine 100 nM, JWH-018 and AKB48 100 nM and 1 µM
# Description: as §1
# After synaptosomal preparation, 0.5 ml aliquots of the suspension were distributed on microporous filters placed at the bottom of a set of parallel superfusion chambers maintained at 37°C and perfused with aerated (95% O2/5% CO2) Kreb’s solution (0.3 ml/min). After 30 min of superfusion to equilibrate the system, 5-min fractions were collected from the 30th to the 75th min (nine samples). […] At the end of the experiment, the radioactivity of the samples and filters was determined by liquid scintillation spectrometry (LS1800 Beckman). In view of the results obtained, in a separate set of experiments, [^3H]-DA uptake was also evaluated.
# [4] = system: [3H]-DA uptake in mouse striatal synaptosomes; test: [3H]-DA uptake in striatal synaptosomes; assay type: biochemical; conditions: for effect on [3H]-DA uptake: GBR 12783 20 nM, JWH-018 and AKB48 100 nM and 1 µM; for reduction of [3H]-DA uptake: cocaine 1 µM, amphetamine 1 µM, added 5 min before 50 nM [3H]-DA, 10 min at 37°C
# Description: as §1
# After synaptosomal preparation, the suspension was maintained under a light and continuous oxygenation (95% O2, 5% CO2) for 20 min at 37°C. Thereafter, 0.5 ml aliquots of striatal synaptosomal suspension were prepared. […] After this period, the reaction was stopped by filtration through microporus nylon filters (0.45 µm, 13 mm; Analytical Technology, Brugherio, Italy). The filters were then washed with 1 ml ice-cold Kreb’s solution and the radioactivity accumulated on synaptosomes was extracted by eluting two times with 1 ml of warm NaOH (1 N) and then determined by liquid scintillation spectrometer. Non-specific uptake was measured by following the same procedure at 0°C.
# [5] = molecular target: CD-1 murine CB1 receptors; conditions: ref [6]; read-out: Ki for CB1 receptors, CD-1 murine preparation; cited from earlier work
# [6] = system: dopamine (DA) transmission in the NAc shell; design: method as in PMID 26327678; conditions: 0.25 mg/kg i.p., not at 0.125 or 0.5 mg/kg i.p.; not in NAc core and mPFC; ref [9]; cited from earlier work
# [7] = system: GABAA-mediated post-synaptic currents in VTA DA neurons; design: method as in PMID 26686391, PMID 25232109, PMID 28373077; conditions: rat VTA DA neurons, ex vivo; ref [26], [82], [83]; cited from earlier work
# T1 sequence (Q01959 whole entry): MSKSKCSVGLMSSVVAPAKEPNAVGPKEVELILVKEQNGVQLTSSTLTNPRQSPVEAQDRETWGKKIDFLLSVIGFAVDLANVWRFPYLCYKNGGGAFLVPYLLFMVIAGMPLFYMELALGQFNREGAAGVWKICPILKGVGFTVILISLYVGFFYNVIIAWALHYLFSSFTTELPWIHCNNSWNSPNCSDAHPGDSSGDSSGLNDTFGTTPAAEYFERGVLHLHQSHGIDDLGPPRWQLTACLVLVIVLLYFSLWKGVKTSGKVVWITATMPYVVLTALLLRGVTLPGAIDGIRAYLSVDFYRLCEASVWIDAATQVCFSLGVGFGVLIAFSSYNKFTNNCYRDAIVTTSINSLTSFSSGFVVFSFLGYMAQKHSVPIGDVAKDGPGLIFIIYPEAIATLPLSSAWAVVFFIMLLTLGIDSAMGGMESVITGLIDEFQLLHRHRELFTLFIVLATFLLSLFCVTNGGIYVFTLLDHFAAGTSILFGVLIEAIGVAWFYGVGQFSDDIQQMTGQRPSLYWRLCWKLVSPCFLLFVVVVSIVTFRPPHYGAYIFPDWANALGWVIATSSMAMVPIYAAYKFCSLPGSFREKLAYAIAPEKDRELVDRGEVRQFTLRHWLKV
Compound,Ki (mouse DAT) [nM],immobility time (male CD-1 mice),total distance traveled (spontaneous locomotion) (male CD-1 mice),duration of the increase of spontaneous locomotion (male CD-1 mice) [min],reduction of [123I]-FP-CIT binding in the striatum [1],spontaneous [3H]-DA efflux from striatal synaptosomes [3],"spontaneous locomotion, antagonist by itself (male CD-1 mice)",also measured
"CCCCCn1nc(C(=O)NC23CC4CC(CC(C4)C2)C3)c2ccccc21 [AKB48, N-(1-adamantyl)-1-pentyl-1H-indazole-3-carboxamide]",> 10000,increased,facilitated the spontaneous locomotion only in the first 15 min,15,~ 42%,did not affect,,Ki (human DAT): 4.59 µM; facilitation of spontaneous locomotion after pretreatment with AM 251 (male CD-1 mice): prevented; facilitation of spontaneous locomotion after coadministration of SCH23390 and haloperidol (male CD-1 mice): prevented; time in the central zone versus peripheral area of the cage (male CD-1 mice): spent more time in the central zone; time of peak extracellular DA level after administration ([2]; AKB48 0.3 mg/kg i.p.): 40 min; increase of NAc shell extracellular DA levels (maximal/peak) [2]: ~ 150 % of baseline values; NAc shell extracellular DA levels [2]: significantly increased; effect on [3H]-DA uptake [4]: ineffective; Ki [5]: 5.34 nM
"Cc1c(C(=O)NN2CCCCC2)nn(-c2ccc(Cl)cc2Cl)c1-c1ccc(I)cc1 [AM 251, reference compound]",,,,,,,did not alter the spontaneous locomotion,
"CC(N)Cc1ccccc1 (stereo not drawn) [Amphetamine, reference compound]",622 ± 53,reduced the immobility time,induced long-lasting increases,,~ 25%,induced a significant increase,,time spent in the peripheral arena (male CD-1 mice): increase the time spent in the peripheral arena; reduction of [3H]-DA uptake [4]: ~40%
"COC(=O)[C@H]1[C@@H](OC(=O)c2ccccc2)C[C@@H]2CC[C@H]1N2C [Cocaine, reference compound]",193 ± 16,reduced the immobility time,induced long-lasting increases,90,~ 40%,induced a significant increase,,time spent in the peripheral arena (male CD-1 mice): increase the time spent in the peripheral arena; reduction of [3H]-DA uptake [4]: ~50%
"C(=C\c1ccccc1)/CN1CCN(CCOC(c2ccccc2)c2ccccc2)CC1 [GBR 12783, 1-(2-benzhydryloxyethyl)-4-[(E)-3-phenylprop-2-enyl]piperazine;dihydrochloride, reference compound]",,,,,,,,"Ki (human DAT; 8 nM [3H]-WIN 35,428, 120 min at 4°C, mean ± SEM, read-out: hDAT-CHO membranes Ki): 0.00193 ± 0.00014 µM; Ki (mouse DAT; 8 nM [3H]-WIN 35,428, 120 min at 4°C, mean ± SEM, read-out: Mouse striatal synaptosomes Ki): 1.72 ± 0.11 nM"
"CCCCCn1cc(C(=O)c2cccc3ccccc23)c2ccccc21 [JWH-018, 1-pentyl-3-(1-naphthoyl)indole]",> 10000,reduced the immobility time,induced long-lasting increases,90,~ 39%,did not affect,,Ki (human DAT): 7.18 µM; facilitation of spontaneous locomotion after pretreatment with AM 251 (male CD-1 mice): prevented; facilitation of spontaneous locomotion after coadministration of SCH23390 and haloperidol (male CD-1 mice): prevented; time in the central zone versus peripheral area of the cage (male CD-1 mice): spent more time in the central zone; increase of NAc shell extracellular DA levels (maximal/peak) [2]: ~ 150 % of baseline values; NAc shell extracellular DA levels [2]: significantly increased; effect on [3H]-DA uptake [4]: ineffective; Ki [5]: 5.82 nM; dopamine (DA) transmission in the NAc shell [6]: increases; GABAA-mediated post-synaptic currents [7]: decreases
"CN1CCc2cc(Cl)c(O)cc2C(c2ccccc2)C1 (stereo not drawn) [SCH23390, 8-chloro-3-methyl-5-phenyl-1,2,4,5-tetrahydro-3-benzazepin-7-ol, reference compound]",,,,,,,did not alter the spontaneous locomotion,
"O=C(CCCN1CCC(O)(c2ccc(Cl)cc2)CC1)c1ccc(F)cc1 [haloperidol, 4-[4-(4-chlorophenyl)-4-hydroxypiperidin-1-yl]-1-(4-fluorophenyl)butan-1-one, reference compound]",,,,,,,did not alter the spontaneous locomotion,
